Values of other authors in paper PMC4906314, “Direct interaction of beta-amyloid with Na,K-ATPase as a putative regulator of the enzyme function” (Scientific Reports, 2016).

Target: Na,K-ATPase
Settings: at the same conditions; read-out: Kd for complexes of Na,K-ATPase with CTS

In the case of `C[C@]12CC[C@H](O)C[C@@]1(O)CC[C@@H]1[C@@H]2CC[C@]2(C)[C@@H](c3ccc(=O)oc3)C[C@H]3O[C@]132` [marinobufagenin], the Kd is listed as 1.5 µM.
